The source of these data is patent publication US20130079348A1, “COMPOUNDS THAT MODULATE INTRACELLULAR CALCIUM” (CalciMedica, Inc., priority 2010, published 2013).

For assay [1], the target named is STIM1 and Orai1 in HEK293 cells (Homo sapiens, UniProt Q96D31). The following applies: HEK293 cells expressing STIM1 and Orai1; cited from earlier work.
The subject of a further assay is Jurkat cells. The following applies: cited from earlier work.
The target of assay [2] is T1, recombinant human STIM1 and Orai1 (HEK-293 cells) (Homo sapiens, UniProt Q96D31).
T1 construct: c-myc (C); expressed in transfected cells; host or cells: HEK-293
T1 sequence (Q96D31 whole entry): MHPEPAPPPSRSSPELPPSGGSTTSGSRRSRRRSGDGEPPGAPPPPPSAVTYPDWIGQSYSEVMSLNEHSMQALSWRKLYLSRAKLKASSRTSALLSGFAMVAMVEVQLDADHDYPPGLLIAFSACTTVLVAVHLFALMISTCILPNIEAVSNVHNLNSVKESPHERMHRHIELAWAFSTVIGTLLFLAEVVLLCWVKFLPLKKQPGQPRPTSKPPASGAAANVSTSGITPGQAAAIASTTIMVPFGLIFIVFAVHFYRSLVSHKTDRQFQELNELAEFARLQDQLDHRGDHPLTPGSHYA
The assay is described as follows: Fluorescence-based assay of store-operated calcium entry in Orai1/STIM1 stable cells. In kind it is cell-based. The following applies: concentration that inhibited 50% of the Peak-Basal fluorescence signal; 30 min compound incubation; read-out: IC50(μM) JR251. As to the method:
A. Fluorescence-based Assay of Store-Operated Calcium Entry in Orai1/STIM1 Stable Cells.
Cells stably expressing recombinant human STIM1 and Orai1 were generated by transfecting a human Orai1 expression plasmid (pcDNA3.1-Orai1-cmyc) into HEK-293 cells stably overexpressing human STIM1 (Roos et al. 2005 JCB 169(3): 435-445). Colonies of cells stably expressing both STIM1 and Orai1 proteins were selected and then subcloned by limiting dilution. Cells were cultured at 37° C./6% CO2 in complete medium with 10% FBS and appropriate selection markers.
The day prior to performing the assay Orai1/STIM1 stable cells were plated in 50 μL of complete medium at 90-95% confluence in a 384 well plate. Cells were grown at 37° C./6% CO2 overnight. On the day of the assay, 1.5 μM fluo-4-AM (Invitrogen) in complete medium was added to the cells, which were then incubated for 1 hour at RT. Cells were washed once in Ca^2+-free HBSS (Hank's buffered saline solution) and 35 μl of Ca^2+-free HBSS was added to each well. Test compounds were added to wells in a 10 μL Ca^2+-free HBSS solution, prepared at 4.5× the desired final concentration, and incubated for 30 minutes at RT. The initial baseline fluorescence signal was then measured with a FLIPR^384 (Molecular Devices) plate reader. Calcium entry was initiated by adding 5 μl of 10× CaCl2 (10 mM) in HBSS, and changes in cellular fluorescence were measured with the FLIPR^384 plate reader. In each well, the magnitude of the fluorescence signal as a result of calcium entry into the cell was determined by calculating the difference between the peak fluorescence signal measured after calcium addition and the initial baseline fluorescence signal (designated Peak-Basal). IC50 values were typically calculated as the concentration that inhibited 50% of the Peak-Basal signal (Table A).

The test system of the next assay is RBL-2H3 cells. Description: Fluorescence-based assay of store-operated calcium entry in RBL-2H3 cells. In kind it is cell-based. The conditions noted are these: Rattus norvegicus, thapsigargin store depletion, 50% of the Upslope inhibited. As to the method: B. Fluorescence-based Assay of Store-Operated Calcium Entry in RBL-2H3 Cells.
RBL-2H3 cells were obtained from ATCC and maintained in complete medium with 10% FBS at 37° C./6% CO2.
The day prior to performing the assay, RBL-2H3 cells are plated in 50 μL of complete medium in a 384 well plate. Cells are grown at 37° C./6% CO2 overnight and grow to 50-60% confluence by the next day. On the assay day, 1.5 μM Fluo-4-AM dye (Invitrogen) in complete medium is added and incubated for 1 hour at RT. Cells are washed twice in Ca^2+-free HBSS buffer and 35 μL Ca^2+-free HBSS buffer is added to each well. 10 μL of a test compound prepared in a Ca^2+-free HBSS solution at 4.5× of the desired concentration is added to a well and incubated for 5 minutes at RT. 10 μL of thapsigargin prepared in a Ca^2+-free HBSS solution at 5.5× of the desired concentration (5.5 uM) is added to each well and incubated for an additional 25 minutes. The initial baseline fluorescence signal is measured with a FLIPR^384 (Molecular Devices) plate reader. 5 μL of 12× calcium in HBSS (12 mM) is added and changes in cellular fluorescence are measured with the FLIPR^384 plate reader. In each well, the change in the fluorescent signal as a function of time due to calcium entry into the cell is determined by calculating the difference between the fluorescent signal measured 7 seconds after calcium addition and the initial baseline fluorescence signal at time zero (t=0). This parameter is designated Upslope. The IC50 value is calculated as the concentration at which 50% of the Upslope is inhibited.

Sequence of STIM1 and Orai1 in HEK293 cells (Q96D31 whole entry): as above

Regarding `NCCOB(c1ccccc1)c1ccccc1` [2-aminoethoxydiphenylborate], the “block of store-operated Ca2+ entry” value in assay [1] was “completely blocked”.
In the case of `Cc1nnsc1C(=O)Nc1ccc(-n2nc(C(F)(F)F)cc2C(F)(F)F)cc1` [BTP-2], in the assay with Jurkat cells (Jurkat cells and colon cancer cells), the inhibition of proliferation result is on record as “inhibits”. Also, the “inhibition of SOCE” value with Jurkat cells (Jurkat cells) was “inhibits”.
For the compound `Cc1ccc(-c2scc(NC(=O)c3cc4c(F)cccn4n3)c2C(=O)O)c(F)c1` [Compound 1], the half-maximal inhibitory concentration (IC50) (in assay [2]; in the assay with RBL-2H3 cells) was ≤ 0.5 µM in each case.
Consider `Cc1ccc(-c2csc(NC(=O)c3cc4cccc(C)n4n3)c2C(=O)O)c(F)c1` [Compound 2], for which the half-maximal inhibitory concentration (IC50) (in assay [2]; in the assay on RBL-2H3 cells) was ≤ 0.5 µM in each case.
Regarding `Cc1ccc(-c2csc(NC(=O)c3cc4cccc(C)n4n3)c2C(=O)O)c(F)c1F` [Compound 3], the IC50 (usually the point on the concentration scale where inhibition reaches its midpoint) in the assay on RBL-2H3 cells is ≤ 0.5 µM.
On the same count and under the same terms, to `Cc1ccc(-c2csc(NC(=O)c3nn4ccccc4c3N)c2C(=O)O)c(F)c1F` [Compound 4] belongs 1 to 10 µM.
As for `O=C(Nc1scc(-c2ccc(Cl)cc2)c1C(=O)O)c1cc2c(F)cc(F)cn2n1` [Compound 5], the IC50 lay in the range of 1 to 10 µM in assay [2] and 0.5 to 1 µM with RBL-2H3 cells.
On to `Cc1ccc(-c2csc(NC(=O)c3cc4c(F)cc(F)cn4n3)c2C(=O)O)c(F)c1F` [Compound 6], for which the half-maximal inhibitory concentration (IC50) in the assay on RBL-2H3 cells lay within 0.5 to 1 µM.
Still for that read-out and setting: the figure for `COc1cccn2nc(C(=O)Nc3scc(-c4ccc(Cl)cc4)c3C(=O)O)cc12` [Compound 7] is 0.5 to 1 µM; for `Cc1ccc(-c2csc(NC(=O)c3cc4ccc(F)cn4n3)c2C(=O)O)c(F)c1F` [Compound 8] it is 0.5 to 1 µM.
Consider `COc1cccc2cc(C(=O)Nc3scc(-c4ccc(Cl)cc4)c3C(=O)O)nn12` [Compound 9], for which the IC50 in assay [2] is 0.5 to 1 µM; in the assay with RBL-2H3 cells, 1 to 10 µM.
Regarding `COc1cccn2nc(C(=O)Nc3scc(-c4ccc(C)c(F)c4F)c3C(=O)O)cc12` [Compound 10], in the assay with RBL-2H3 cells, the IC50 was 0.5 to 1 µM.
For the compound `Cc1ccc(-c2csc(NC(=O)c3nc4ccc(F)cc4s3)c2C(=O)O)c(F)c1F` [Compound 11], the IC50 (in assay [2]; in the assay with RBL-2H3 cells) was ≤ 0.5 µM in each case.
For `Cc1ccc(-c2csc(NC(=O)c3nc4ccc(F)cc4s3)c2C(=O)O)c(F)c1` [Compound 12], the IC50 in assay [2] is 0.5 to 1 µM; in the assay with RBL-2H3 cells, ≤ 0.5 µM.
For `O=C(Nc1scc(-c2ccc(Cl)cc2F)c1C(=O)O)c1nc2c(F)cccc2s1` [Compound 13], the figures for the IC50 (in assay [2]; with RBL-2H3 cells) were 0.5 to 1 µM and ≤ 0.5 µM, respectively.
As to `Cc1ccc(-c2csc(NC(=O)c3nc4c(F)cccc4s3)c2C(=O)O)c(F)c1` [Compound 14], the IC50 (in assay [2]; in the assay on RBL-2H3 cells) was 0.5 to 1 µM each time.
Turning to `Cc1ccc(-c2csc(NC(=O)c3nc4cc(C(F)(F)F)ccc4s3)c2C(=O)O)c(F)c1F` [Compound 15], in the assay with RBL-2H3 cells, the IC50 lay in the range of 0.5 to 1 µM.
Regarding `Cc1ccc(-c2csc(NC(=O)c3nc4ccc(Br)cc4s3)c2C(=O)O)c(F)c1F` [Compound 16], the half-inhibitory concentration (IC50) in the assay on RBL-2H3 cells was ≤ 0.5 µM.
As for `Nc1cccc2nc(C(=O)Nc3scc(-c4ccc(Cl)cc4)c3C(=O)O)sc12` [Compound 17], the IC50 (in assay [2]; in the assay with RBL-2H3 cells) was ≤ 0.5 µM throughout.
On to `Cc1ccc(-c2csc(NC(=O)c3nc4cccc(N)c4s3)c2C(=O)O)c(F)c1F` [Compound 18], for which the half-inhibitory concentration (IC50) in assay [2] was 0.5 to 1 µM; with RBL-2H3 cells, ≤ 0.5 µM.
On to `COc1ccc2sc(C(=O)Nc3scc(-c4ccc(Cl)cc4)c3C(=O)O)nc2c1` [Compound 19], for which the values for the IC50 (in assay [2]; in the assay with RBL-2H3 cells) were 0.5 to 1 µM and ≤ 0.5 µM, respectively.
For `COc1cccc2sc(C(=O)Nc3scc(-c4ccc(Cl)cc4)c3C(=O)O)nc12` [Compound 20], the half-maximal inhibitory concentration (IC50) in assay [2] was ≤ 0.5 µM; in the assay with RBL-2H3 cells it was 0.5 to 1 µM.
`O=C(Nc1scc(-c2ccc(Cl)cc2)c1C(=O)O)c1nc2cccc(Cl)c2s1` [Compound 21]: the IC50 in assay [2] is 0.5 to 1 µM; in the assay with RBL-2H3 cells, ≤ 0.5 µM.
As for `Cc1ccc(-c2csc(NC(=O)c3nc4cccc(Cl)c4s3)c2C(=O)O)c(F)c1F` [Compound 22], the 50% inhibitory concentration (IC50) in assay [2] was 0.5 to 1 µM; in the assay with RBL-2H3 cells, ≤ 0.5 µM.
`Cc1ccc(-c2csc(NC(=O)c3sc4ccccc4[n+]3[O-])c2C(=O)O)c(F)c1F` [Compound 23]: the IC50 in assay [2] is 0.5 to 1 µM; in the assay on RBL-2H3 cells, ≤ 0.5 µM.
In the case of `CC(=O)Nc1cccc2nc(C(=O)Nc3scc(-c4ccc(Cl)cc4)c3C(=O)O)sc12` [Compound 24], the half-maximal inhibitory concentration (IC50) in assay [2] lay in the range of 1 to 10 µM; in the assay with RBL-2H3 cells, 0.5 to 1 µM.
In the case of `Cc1ccc(-c2csc(NC(=O)c3nc4cccc(O)c4s3)c2C(=O)O)c(F)c1F` [Compound 25], the values for the 50% inhibitory concentration (IC50) (in assay [2]; with RBL-2H3 cells) were 0.5 to 1 µM and 1 to 10 µM, respectively.
Consider `Cc1ccc(-c2csc(NC(=O)c3c(O)ccc(F)c3F)c2C(=O)O)c(F)c1F` [Compound 26], for which the IC50 (in assay [2]; in the assay on RBL-2H3 cells) was ≤ 0.5 µM in each case.
Take `Cc1ccc(-c2csc(NC(=O)c3cc(F)cc(F)c3O)c2C(=O)O)c(F)c1F` [Compound 27]: the IC50 (in assay [2]; with RBL-2H3 cells) was ≤ 0.5 µM throughout.
As to `O=C(O)c1c(-c2ccc(Cl)cc2)csc1NC(=O)N1Cc2cccc(F)c2C1` [Compound 28], the IC50 (in assay [2]; in the assay on RBL-2H3 cells) was ≤ 0.5 µM each time.
In the case of `Cc1ccc(-c2csc(NC(=O)c3ccc(F)c(F)c3O)c2C(=O)O)c(F)c1F` [Compound 29], the concentration for half-maximal inhibition (IC50) (in assay [2]; in the assay on RBL-2H3 cells) was ≤ 0.5 µM in each case.
